Measured values: ChEMBL document CHEMBL1155728, “New steroid glycosides from the starfish Asterias rathbuni” (J Nat Prod, 2001)

What was measured:
Parameters in all cases: species or system Egg
[1] = Inhibition of cell division of fertilized eggs of Strongylocentrotus intermedius at 2.9 X 10 ' -5 M; conditions: fertilized sea urchin eggs
[2] = Inhibition of cell division of fertilized eggs of Strongylocentrotus intermedius
[3] = Inhibition of cell division of fertilized eggs of Strongylocentrotus intermedius at 7 X 10 ' -5 M; conditions: fertilized sea urchin eggs

Row | Structure (SMILES) | IC100 [2] [×10⁻⁴ M] | also measured
1 | CC(C)=CC(=O)C[C@@H](C)[C@H]1CC[C@H]2[C@@H]3C[C@H](O)[C@H]4C[C@@H](OS(=O)(=O)O)CC[C@]4(C)C3=CC[C@]12C |  | inhibition at 29 µM [1]: 100%
2 | CC(C)[C@H](CC[C@@H](C)[C@H]1C[C@H](OS(=O)(=O)[O-])[C@H]2[C@@H]3C[C@H](O)[C@H]4C[C@@H](O)CC[C@]4(C)[C@H]3CC[C@@]21C)O[C@@H]1OC[C@@H](O)[C@H](O)[C@H]1O.[Na+] [AMURENSOSIDE A] | 1.9 | 
3 | CC(C)[C@H](CC[C@@H](C)[C@H]1C[C@@H](O)[C@H]2[C@@H]3C[C@H](O)[C@H]4C[C@@H](O)CC[C@]4(C)[C@H]3CC[C@@]21C)O[C@@H]1OC[C@@H](O)[C@H](O)[C@H]1O [RATHBUNIOSIDE R1] |  | inhibition at 70 µM [3]: 100%
4 | CC(C)[C@H](CC[C@@H](C)[C@H]1C[C@H](O)[C@H]2[C@@H]3C[C@@H](O)[C@@]4(O)C[C@@H](O)CC[C@]4(C)[C@H]3CC[C@@]21C)O[C@@H]1OC[C@@H](O)[C@H](O)[C@H]1O [RATHBUNIOSIDE R2] | 1.7 | 
